Experimental data from ChEMBL document CHEMBL1201862, “PubChem BioAssay data set” (2004).
Blank lines part the entries; values can stand above or below the compound they belong to. Activity calls are given as the source filed them.

Legend:
Cytochrome P450 2C19 = Cytochrome P450 2C19 (Homo sapiens, UniProt P33261); assay: Cytochrome panel assay with activity outcomes. Panel member name: p450-cyp2c19 Compounds with AC50 equal or less than 10 uM are considered active; assay type: functional; details: read-out: AC50
Cytochrome P450 2C19, sequence (P33261 whole entry): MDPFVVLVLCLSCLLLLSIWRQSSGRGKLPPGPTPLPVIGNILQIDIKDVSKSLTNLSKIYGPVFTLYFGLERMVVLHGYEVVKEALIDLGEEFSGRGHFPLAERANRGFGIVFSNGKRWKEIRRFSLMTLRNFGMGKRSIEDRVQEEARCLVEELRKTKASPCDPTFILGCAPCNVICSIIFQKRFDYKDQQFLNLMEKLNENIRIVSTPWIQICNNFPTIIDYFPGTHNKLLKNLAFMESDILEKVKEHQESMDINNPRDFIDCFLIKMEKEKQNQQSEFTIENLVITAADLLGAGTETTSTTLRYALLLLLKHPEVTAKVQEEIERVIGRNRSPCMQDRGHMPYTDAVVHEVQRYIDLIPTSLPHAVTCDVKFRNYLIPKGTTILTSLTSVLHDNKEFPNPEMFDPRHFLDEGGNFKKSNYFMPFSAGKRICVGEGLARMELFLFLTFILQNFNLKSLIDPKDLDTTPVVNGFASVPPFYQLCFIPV

Cytochrome P450 2C9 = Cytochrome P450 2C9 (Homo sapiens, UniProt P11712)
Cytochrome P450 2C9, sequence (P11712 whole entry): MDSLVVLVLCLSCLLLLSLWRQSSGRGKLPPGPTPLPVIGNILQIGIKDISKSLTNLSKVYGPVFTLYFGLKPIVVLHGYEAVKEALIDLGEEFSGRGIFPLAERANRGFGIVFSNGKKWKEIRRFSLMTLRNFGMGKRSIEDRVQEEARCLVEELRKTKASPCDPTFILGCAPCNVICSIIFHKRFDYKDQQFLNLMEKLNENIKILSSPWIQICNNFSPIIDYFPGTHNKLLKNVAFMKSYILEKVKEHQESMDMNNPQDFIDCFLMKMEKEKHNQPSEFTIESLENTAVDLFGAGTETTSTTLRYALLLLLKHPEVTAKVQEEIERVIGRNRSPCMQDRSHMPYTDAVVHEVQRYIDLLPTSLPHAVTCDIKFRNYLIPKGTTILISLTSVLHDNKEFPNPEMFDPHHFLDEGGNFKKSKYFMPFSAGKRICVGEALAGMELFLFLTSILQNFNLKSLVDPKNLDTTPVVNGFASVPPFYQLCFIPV

[1] = tested on: Streptococcus sp. 'group A'; assay: growth inhibition of control SK(-) GAS strain, dose response, counter-screen for streptokinase expression inhibitor project, luminescence, kanamycin, BacTiterGlo, confirmation (AID 1900); assay type: functional, organism-based
Streptococcus = assay: Group A Streptococcus viability loss, dose response, counter-screen for streptokinase expression inhibitor project, luminescence, BacTiterGlo (AID 1915); assay type: functional, organism-based;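 also: potency for reduction of bacterial viability or growth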
[2] = target: T1, Heat shock factor protein 1 (Mus musculus, UniProt P38532); assay: inhibition of MG132-induced HSE-luciferase signal, confirmation, cell-based, NIH3T3, luminescence, dose retest (AID 2382); assay type: functional;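 also: NIH3T3 fibroblasts with HSF1-driven luciferase reporter stressed by proteasome inhibitor MG132; luminescence from HSF1-driven luciferase expression after 8 hours of MG132 stress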
T1 sequence (P38532 whole entry): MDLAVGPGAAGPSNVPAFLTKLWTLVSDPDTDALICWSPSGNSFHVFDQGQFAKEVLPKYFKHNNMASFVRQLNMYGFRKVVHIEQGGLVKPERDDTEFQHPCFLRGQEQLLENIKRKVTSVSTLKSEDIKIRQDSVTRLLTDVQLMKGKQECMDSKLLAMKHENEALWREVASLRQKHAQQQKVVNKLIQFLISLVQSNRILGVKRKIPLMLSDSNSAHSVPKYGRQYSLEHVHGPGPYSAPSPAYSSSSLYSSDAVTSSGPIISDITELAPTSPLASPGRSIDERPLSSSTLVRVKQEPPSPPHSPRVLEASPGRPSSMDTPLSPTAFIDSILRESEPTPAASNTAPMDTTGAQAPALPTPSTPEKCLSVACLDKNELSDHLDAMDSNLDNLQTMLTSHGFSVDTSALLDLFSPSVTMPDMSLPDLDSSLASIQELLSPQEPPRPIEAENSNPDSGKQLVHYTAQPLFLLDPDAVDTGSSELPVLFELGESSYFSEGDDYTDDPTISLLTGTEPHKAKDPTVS

[3] = Luminescence Cell-Based Dose Retest to Confirm Inhibitors of Cancer Stem Cells. [Related pubchem assays (depositor defined):AID2717, AID2721]; assay type: functional; details: Homo sapiens
[4] = cytotoxicity toward NIH3T3 fibroblasts, dose response, counter-screen, cell-based, ATP luminescence, mouse fibroblasts (AID 2010); assay type: functional;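 also: cells exposed to compound for about 90 hours before reading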
[5] = inhibitors of intracellular T. cruzi replication, confirmation, NIH3T3 host cells, beta-gal luminescence (AID 2044); assay type: functional, cell-based;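 also: intracellular parasites grown in NIH/3T3 mouse fibroblasts as host cells; luminescent beta-galactosidase reporter signal from transgenic T. cruzi replicating inside host cells; inhibitors lower the luminescence signal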
Cytochrome P450 1A2 = target: T2, Cytochrome P450 1A2 (Homo sapiens, UniProt P05177);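 also: PubChem cytochrome P450 panel assay, CYP1A2 panel member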
T2 sequence (P05177 whole entry): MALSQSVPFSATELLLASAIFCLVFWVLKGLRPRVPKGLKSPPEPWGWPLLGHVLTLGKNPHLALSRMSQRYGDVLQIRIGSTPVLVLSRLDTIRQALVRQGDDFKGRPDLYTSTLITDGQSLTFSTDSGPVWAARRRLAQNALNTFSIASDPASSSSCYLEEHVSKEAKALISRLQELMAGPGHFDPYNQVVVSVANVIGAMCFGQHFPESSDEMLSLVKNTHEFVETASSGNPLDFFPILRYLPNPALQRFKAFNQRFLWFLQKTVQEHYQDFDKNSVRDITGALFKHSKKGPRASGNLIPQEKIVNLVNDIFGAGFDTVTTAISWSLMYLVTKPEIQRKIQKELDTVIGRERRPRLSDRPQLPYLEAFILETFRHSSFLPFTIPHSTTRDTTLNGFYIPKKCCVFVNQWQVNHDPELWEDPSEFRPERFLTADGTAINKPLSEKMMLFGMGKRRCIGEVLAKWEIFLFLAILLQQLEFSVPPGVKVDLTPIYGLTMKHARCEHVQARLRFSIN

Cytochrome P450 3A4 = Cytochrome P450 3A4 (Homo sapiens, UniProt P08684);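 also: CYP3A4 tested as one member of a cytochrome P450 panel screen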
Cytochrome P450 3A4, sequence (P08684 whole entry): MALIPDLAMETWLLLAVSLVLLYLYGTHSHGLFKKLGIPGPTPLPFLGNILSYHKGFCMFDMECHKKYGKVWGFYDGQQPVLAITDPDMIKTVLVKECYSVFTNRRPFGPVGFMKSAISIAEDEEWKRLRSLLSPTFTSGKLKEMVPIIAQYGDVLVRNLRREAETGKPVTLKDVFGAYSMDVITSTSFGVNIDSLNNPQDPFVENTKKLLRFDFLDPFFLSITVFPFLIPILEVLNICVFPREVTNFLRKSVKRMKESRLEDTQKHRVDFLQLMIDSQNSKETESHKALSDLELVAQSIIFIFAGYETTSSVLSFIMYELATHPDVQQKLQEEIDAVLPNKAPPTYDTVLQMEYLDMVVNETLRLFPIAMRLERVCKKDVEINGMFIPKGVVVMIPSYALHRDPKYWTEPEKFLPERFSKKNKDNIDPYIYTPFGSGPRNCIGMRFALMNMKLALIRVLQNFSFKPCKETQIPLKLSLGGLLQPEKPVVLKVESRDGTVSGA

Cytochrome P450 2D6 = Cytochrome P450 2D6 (Homo sapiens, UniProt P10635);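 also: CYP2D6 member of a cytochrome P450 panel assay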
Cytochrome P450 2D6, sequence (P10635 whole entry): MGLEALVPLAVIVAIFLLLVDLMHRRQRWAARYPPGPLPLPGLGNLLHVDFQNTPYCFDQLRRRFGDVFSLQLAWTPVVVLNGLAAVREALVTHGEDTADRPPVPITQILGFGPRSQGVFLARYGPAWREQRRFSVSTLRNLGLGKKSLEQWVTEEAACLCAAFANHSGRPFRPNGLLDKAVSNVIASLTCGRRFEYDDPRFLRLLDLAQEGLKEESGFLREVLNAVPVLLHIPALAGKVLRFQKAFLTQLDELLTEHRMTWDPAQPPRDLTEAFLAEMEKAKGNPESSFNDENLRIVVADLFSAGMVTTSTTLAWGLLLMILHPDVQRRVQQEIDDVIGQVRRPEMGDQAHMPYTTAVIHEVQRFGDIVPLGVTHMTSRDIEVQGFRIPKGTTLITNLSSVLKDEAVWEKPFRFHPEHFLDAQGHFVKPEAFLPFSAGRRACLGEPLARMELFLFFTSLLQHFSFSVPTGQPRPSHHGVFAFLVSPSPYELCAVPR

SMILES: N#CCC(=O)Nc1ccc(C(=O)OC(C(=O)Nc2cc(C(F)(F)F)ccc2Cl)c2ccccc2)cc1 (centres undefined)
EC50 [1]: 2.31 µM (active)
EC50 (Streptococcus): 6.92 µM (active)

SMILES: COc1ccc(Nc2nc(-c3cccc([N+](=O)[O-])c3)nc3ccccc23)cc1
AC50 [3]: 2.83 µM (active)
EC50 [4]: > 60 µM (not active)
EC50 [5]: 1.71 µM (active)

SMILES: Sc1nnc(-c2ccc(Cl)cc2)n1Cc1ccccc1
AC50 [3]: 0.734 µM (active)

SMILES: O=c1cc(-c2ccc(O)cc2)oc2c([C@H]3O[C@@H](CO)[C@@H](O)[C@@H](O)[C@@H]3O)c(O)cc(O)c12
AC50 (Cytochrome P450 1A2): 20 µM (inconclusive)

SMILES: CC1(C(=O)NCCCNc2ncc(C(F)(F)F)cc2Cl)C=CC2(CCCCC2)N1C(=O)c1ccccc1 (centres undefined)
EC50 [2]: > 195 µM (not active)

SMILES: Clc1ccc(C2=CCC[C@H]3CC[C@@H]2N3)cn1
AC50 (Cytochrome P450 3A4): 39.8 µM (inconclusive)

SMILES: COC(=O)[C@@]1(Cc2ccccc2)[C@H]2c3cc(C(=O)N(C)C)n(Cc4c(CO)ncc(C)c4O)c3C[C@H]2CN1C(=O)c1ccccc1
AC50 (Cytochrome P450 1A2): 25.1 µM (inconclusive)

SMILES: Cc1cc(OCC(F)(F)C(F)(F)C(F)(F)C(F)(F)C(F)(F)C(F)F)nc(N)n1
AC50 (Cytochrome P450 1A2): 28.2 µM (inconclusive)

SMILES: O=C(Nc1ccc(F)cc1)c1nc(O)c2nnn(Cc3cccc4ccccc34)c2n1
EC50 [1]: 2.58 µM (active)
EC50 (Streptococcus): 37.2 µM (active)

SMILES: CCCCCCSc1cccc(-c2nc3ccc(C)cn3c2NCc2ccccc2)c1
AC50 [3]: 3.14 µM (active)

SMILES: Cc1ccc(C(=O)CSc2nc(-c3ccccc3)ccc2C#N)cc1
AC50 [3]: 3.28 µM (active)

SMILES: C/C(CCN1CCc2nc(-c3ccccc3)c(-c3ccccc3)cc2C1)=N\O[C@@H](C)CN1CCCc2nc(C)c(C)cc21
AC50 (Cytochrome P450 2D6): 3.16 µM (inconclusive)
AC50 (Cytochrome P450 3A4): 3.98 µM (inconclusive)

SMILES: O=C(NCc1ccccc1Cl)C1CCN(S(=O)(=O)N2CCCC2)CC1
EC50 [2]: > 195 µM (not active)

SMILES: CC(C)(C)c1ccc(NS(=O)(=O)c2ccc(N)cc2)cc1
AC50 (Cytochrome P450 3A4): 1 µM (inconclusive)
AC50 (Cytochrome P450 1A2): 3.16 µM (inconclusive)

SMILES: CC1CCCC(C)N1C(=O)CSc1ccc(-c2ccc3c(c2)OCCO3)nn1 (centres undefined)
EC50 [2]: > 195 µM (not active)

SMILES: O=C1Oc2ccccc2C2(O)C3CCCCCC3C12 (centres undefined)
AC50 (Cytochrome P450 2C9): 22.4 µM (inconclusive)

The remaining lines, values ahead:

AC50 (Cytochrome P450 2C19): 25.1 µM (inconclusive)
AC50 (Cytochrome P450 2C9): 20 µM (inconclusive)
SMILES: COCCn1c(=O)c(-c2cccs2)nc2cncnc21

AC50 (Cytochrome P450 2C9): 17.8 µM (inconclusive)
SMILES: COc1cc2c(cc1OC)C(C(=O)N1CCN(c3ccccn3)CC1)C(c1cccs1)N(C)C2=O (centres undefined)

EC50 [2]: 40.1 µM (active)
SMILES: COC(=O)CCN1CCc2cc(N=Nc3ccc([N+](=O)[O-])cc3)ccc21

AC50 (Cytochrome P450 2C19): 20 µM (inconclusive)
AC50 (Cytochrome P450 2C9): 7.08 µM (inconclusive)
SMILES: Cc1cccc(-n2c(S)nnc2Cn2nc(C)c([N+](=O)[O-])c2C)c1

AC50 (Cytochrome P450 3A4): 25.1 µM (inconclusive)
AC50 (Cytochrome P450 1A2): 15.8 µM (inconclusive)
SMILES: CCNc1ncc2nc(-c3ccc(OC)cc3)c(=O)n(Cc3cccc(OC)c3)c2n1

EC50 [2]: > 195 µM (not active)
SMILES: O=C(Nc1nnc(S(=O)(=O)N2CCCCCC2)s1)c1ccccc1Cl

EC50 [2]: > 195 µM (not active)
SMILES: CC(C)(C)c1nc(N2CCN(C(=O)c3ccco3)CC2)c2nnn(Cc3ccccc3)c2n1

EC50 [2]: > 195 µM (not active)
SMILES: COCCn1c(=O)[nH]c2cc(C(=O)NC3CCCCCC3)ccc2c1=O

EC50 [2]: > 195 µM (not active)
SMILES: COC(=O)C1CCN(C(=O)c2sc3nc(-c4ccccc4)cn3c2C)CC1

AC50 (Cytochrome P450 2C19): 22.4 µM (inconclusive)
AC50 (Cytochrome P450 1A2): 25.1 µM (inconclusive)
SMILES: CC(C)n1c(N2CCN(C(=O)Nc3ccccc3)CC2)nc2ccccc21

AC50 (Cytochrome P450 2C9): 3.98 µM (inconclusive)
AC50 (Cytochrome P450 2D6): 3.16 µM (inconclusive)
SMILES: O=C(CSc1nccn1-c1ccccc1)c1ccc(Cl)cc1

AC50 (Cytochrome P450 2C9): 7.94 µM (inconclusive)
SMILES: O=C(O)[C@H]1CCc2ccc3ccccc3c2[C@H]1c1cccc2ccccc12
